The source of these data is PMC6336804, “Identification of selective inhibitors of Helicobacter pylori IMPDH as a targeted therapy for the infection” (Scientific Reports, 2019).

Experiment [1] deals with T1, HpIMPDH (Helicobacter pylori, UniProt P56088).
T1 construct: His tag; made in house; host or cells: E. coli Rosetta(DE3) pLysS, pET-28a(+)
Put plainly: Mechanism of HpIMPDH inhibition, kinetic studies with varying IMP or NAD+ (Lineweaver-Burk). The format is biochemical. The conditions noted are these: for Conclusion: type of inhibition versus IMP / Conclusion: type of inhibition versus NAD+: Table S4. The text has this:
There are three important mechanisms of enzyme inhibition, viz. competitive, non-competitive and uncompetitive inhibition. […] The initial velocity data were plotted using Lineweaver-Burk equation using GraphPad Prism.
The data is plotted using the Lineweaver-Burk equation.

For experiment [2], the target named is T1, HpIMPDH. Put plainly: HpIMPDH enzyme inhibition assay (NADH fluorescence). The format is biochemical. On the procedure:
To calculate the IC50 values, the initial velocity of the reaction is plotted against concentrations of the small molecule inhibitor, and the data is fitted with the Hill equation.
Similar to enzyme kinetic studies, these were also determined by monitoring NADH concentration through the fluorescence measurement. In the presence of IMPDH inhibitor, decreased catalytic activity of the enzyme reduces the formation of NADH. […] The production of NADH was monitored by measuring fluorescence at 440 nm when excited at 340 nm using PerkinElmer EnVision Multilabel Reader (Perkin Elmer, Inc., MA, USA) at 37 °C. In these assays C91 was used as a positive control.
IC50 values for all compounds were calculated with the help of software GraphPad Prism. The equation applied was:2 Y=Bottom+(Top−Bottom)/1+10^((LogIC50−X)∗HillSlope)

In another experiment the test system is TfIMPDH. The conditions noted are these: TfIMPDH ref 6; cited from earlier work.
The subject of another experiment is HsIMPDH-II. Also noted: method as in ref 4 (a number printed in a supplementary file, which may have a reference list of its own: not looked up in the article's list). The conditions noted are these: HsIMPDH-II ref 4; cited from earlier work.
Experiment [3] deals with T1, HpIMPDH. The format is biochemical. The conditions noted are these: 100 nM enzyme. The text has this:
Before carrying out enzymatic assays, it is important to determine the enzyme activity.
The initial velocity data was fitted using Michaelis–Menten equation (1) with the help of GraphPad Prism to calculate enzyme kinetic parameters.1 V=Vmax[S]/KM+[S] where, V is velocity, Vmax is maximum velocity, [S] is substrate concentration, KM is Michaelis–Menten constant.

The subject of another experiment is PaIMPDH. The note with it: PaIMPDH ref 7; cited from earlier work.
A further experiment has as its system HsIMPDH-I. Also on record: method as in ref 4 (a number printed in a supplementary file, which may have a reference list of its own: not looked up in the article's list). The note with it: HsIMPDH-I ref 4; cited from earlier work.
Experiment [4] deals with T1, HpIMPDH. Also noted: method as in ref 3 (a number printed in a supplementary file, which may have a reference list of its own: not looked up in the article's list). The note with it: previously reported HpIMPDH data ref 3; cited from earlier work.
Another experiment concerns AgIMPDH. Also noted: method as in ref 5 (a number printed in a supplementary file, which may have a reference list of its own: not looked up in the article's list). The note with it: AgIMPDH ref 5; cited from earlier work.
The next experiment has as its system SpIMPDH. Also noted: method as in ref 9 (a number printed in a supplementary file, which may have a reference list of its own: not looked up in the article's list). The note with it: SpIMPDH ref 9; cited from earlier work.
For another experiment, the system named is BbIMPDH. Also noted: method as in ref 10 (a number printed in a supplementary file, which may have a reference list of its own: not looked up in the article's list). The note with it: BbIMPDH ref 10; cited from earlier work.
The next experiment relates to CpIMPDH. Also on record: method as in ref 8 (a number printed in a supplementary file, which may have a reference list of its own: not looked up in the article's list). The note with it: CpIMPDH ref 8; cited from earlier work.
The mark [5] stands for this setting: IC50, HpIMPDH inhibition, 100 nM HpIMPDH, NAD+ 300 µM, IMP 250 µM.

Like-named read-outs stand apart in the source and are kept apart here.

T1 sequence (P56088 whole entry): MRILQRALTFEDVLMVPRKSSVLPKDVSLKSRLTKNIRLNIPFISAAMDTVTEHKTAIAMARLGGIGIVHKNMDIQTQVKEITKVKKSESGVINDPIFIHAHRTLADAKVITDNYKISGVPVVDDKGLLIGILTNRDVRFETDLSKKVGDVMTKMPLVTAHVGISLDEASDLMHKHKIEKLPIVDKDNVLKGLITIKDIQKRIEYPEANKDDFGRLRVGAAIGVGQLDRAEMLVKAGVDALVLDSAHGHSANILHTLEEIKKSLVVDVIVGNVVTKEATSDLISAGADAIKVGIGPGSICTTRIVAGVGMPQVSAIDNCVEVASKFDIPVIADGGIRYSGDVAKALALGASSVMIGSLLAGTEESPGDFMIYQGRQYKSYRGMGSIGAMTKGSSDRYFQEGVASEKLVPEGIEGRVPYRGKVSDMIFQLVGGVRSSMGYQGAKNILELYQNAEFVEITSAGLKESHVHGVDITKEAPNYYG

`O=C(Cn1c(-c2ccccn2)nc2ccccc21)Nc1ccc2ccccc2c1` [Compound 1, reference compound]: at HpIMPDH [1], the “Mechanism of HpIMPDH inhibition against both IMP and NAD+” value is given as “uncompetitive”; the “Conclusion: type of inhibition versus IMP” value is on record as “Un-competitive inhibition”; the “Conclusion: type of inhibition versus NAD+” value is “Un-competitive inhibition”. The compound also showed an IC50 against HpIMPDH [2] (setting [5]) of 155 ± 82 nM.
In the case of `O=C(Cn1cc(C(=O)Nc2cccnc2)c2ccccc21)Nc1ccc(Br)cc1` [Compound 2], on HpIMPDH [1], the “Mechanism of HpIMPDH inhibition against both IMP and NAD+” value was “noncompetitive inhibition”; the “Conclusion: type of inhibition versus IMP” value is recorded as “Non-competitive inhibition”; the “Conclusion: type of inhibition versus NAD+” value is on record as “Non-competitive inhibition”. Further, the “IC50 value (in words)” value at HpIMPDH [2] (HpIMPDH) is reported as “micromolar range”. Further, the IC50 on HpIMPDH [2] (setting [5]) came to 1890 ± 420 nM. Half-maximal inhibition at HpIMPDH [2] (IC50, inhibition profile of indole based compounds, Table S3) (IC50) required 1880 nM.
Regarding `NC(=O)c1ccc[n+]([C@@H]2O[C@H](COP(=O)([O-])OP(=O)(O)OC[C@H]3O[C@@H](n4cnc5c(N)ncnc54)[C@H](O)[C@@H]3O)[C@@H](O)[C@H]2O)c1` [NAD^+], the Km was 150 ± 30 µM with TfIMPDH; 46 ± 2.8 µM in the experiment with HsIMPDH-II; 76.4 ± 1.09 µM at HpIMPDH [3] (varying NAD+, IMP 500 µM constant); 1.76 ± 0.109 mM in the experiment with PaIMPDH; 32 ± 3.4 µM with HsIMPDH-I; 73 ± 6 µM on HpIMPDH [4]. Also, the Km was 280 ± 24.7 µM in the experiment on AgIMPDH, 1.18 ± 0.4 mM in the experiment with SpIMPDH, 1.1 ± 0.16 mM in the experiment with BbIMPDH and 150 ± 20 µM with CpIMPDH. Further, the “kcat of HpIMPDH for the substrate” value at HpIMPDH [3] was found to be 5.96 ± 0.53 S^−1.

As a reminder, the IC50 is the concentration needed to halve the response being measured. Read a high IC50 as weaker potency in that assay. As usually defined, the Km is the substrate concentration at which the rate is half of its maximum.
